Several values for one entry are separate records, joined by “and”; a condition that tells them apart may be missing. Identical values can stand only once. A value given as a limit tells only on which side of the number the result lay.

The test system of the assay is 186277-243-T-J2-PDC complex spheroids, viability. The assay is described as follows: Anticancer human tumor 186277-243-T-J2-PDC patient-derived colon adenocarcinoma cell line growth inhibition [RAS]. The settings on record: for viability, T/C: stronger effect = lower value. From the text: RAS pathway inhibitors in Combinations in Complex Spheroids
A high-throughput screen of multi-cell type tumor spheroids was designed to identify active combinations of RAS pathway inhibitors and targeted small molecules. Complex spheroids include a stromal component modeled by human endothelial cells (HUVEC) and fibroblasts modeled by human mesenchymal stem cells (MSCs). The concentration ranges selected for each drug and investigational agent were based upon clinically achievable concentrations if the clinical Cmax of the agent was known.
Compounds. The drugs and investigational agents: abemaciclib (NSC768073), cobimetinib (NSC768068), divarasib (GDC6063, NSC841802), docetaxel (NSC628503), GDC-1971 (RLY-1971, NSC841576), gemcitabine (NSC613327), inavolisib (NSC800729), ipatasertib (NSC767898), KB-0742 (NSC834161), MRTX-1133 (NSC836407), osimertinib (NSC779217), RMC-4630 (NSC839698), RMC-6236 (NSC851965), RMC-6291 (NSC852671), Ro-3306 (NSC812927), sapanisertib (NSC764658), SN-38 (NSC673596), staurosporine (NSC755774), SY5609 (NSC837396), and tovorafenib (DAY101, NSC766906), were obtained from the National Cancer Institute (NCI) Developmental Therapeutics Program Chemical Repository. The FDA-approved anticancer drug set is available from the NCI Developmental Therapeutics Program. […] The stock solutions were prepared in dimethyl sulfoxide (DMSO, Sigma-Aldrich, St. Louis, MO, cat. D2650) at 800-fold the tested concentration and stored at -70 degrees C prior to their use. All drugs and investigational agents were tested over a range starting from a high concentration at or near the clinical Cmax and decreasing in half-log increments. If the clinical Cmax for an agent had not been determined, the highest concentration tested was 10 microM.
Cell Culture. All cells were maintained in an incubator at 37 degrees C and 5% CO2 with 95% humidity. The PDC lines were cultured according to standard operating procedures established by the NCI PDMR. All PDCs were thawed and cultured in Matrigel-coated flasks prepared with a working solution of 1X Ham's F-12 nutrient mix, without supplementation (Invitrogen, Waltham, MA, cat. 11765054), 100 U/mL penicillin-streptomycin (Invitrogen, cat. 15140122), and 2.5% Matrigel (Corning Inc., Corning, NY, cat. 354248) for the first three passages. The 362531-283-R-J2-PDC and 782815-120-R-J1-PDC lines were cultured in 6C/Colon 1B media, which includes advanced DMEM/F-12 (Thermo Fisher Scientific, cat. 12634028), 10 mM HEPES (Thermo Fisher Scientific, cat. 15630080), 1X GlutaMAX supplement (Thermo Fisher Scientific, cat. 35050061), 0.1 mg/mL primocin (InvivoGen, San Diego, CA, cat. ant-pm-2), 10% defined fetal bovine serum, heat inactivated (HyClone Laboratories Inc., Logan, UT, cat. SH30070.03HI), 50% L-WRN conditioned media (ATCC, cat. CRL-3276), 1.25 mM N-Acetyl-L-cysteine (Sigma-Aldrich, cat. A9165), 10 mM nicotinamide (Sigma-Aldrich, cat. N0636), 1X B-27 supplement (Thermo Fisher Scientific, cat. 17504044), 1X N-2 supplement (Thermo Fisher Scientific, cat. 17502048), 50 ng/mL human EGF (Thermo Fisher Scientific, cat. PHG0311), and 10 microM Y-27632 dihydrochloride (Tocris Bioscience, cat. 1254). The K12877-001-R-J1-PDC line was cultured in 6I media, which includes all 6C/Colon 1B media plus 10 ng/mL human FGF-10 (PeproTech, cat. 100-26), 1 ng/mL human FGF-2 (PeproTech, cat. 100-18B), 1 µM prostaglandin E2 (Tocris Bioscience, cat. 2296), […] hydrocortisone (Sigma-Aldrich, cat. H4001), and […] bovine insulin (Sigma-Aldrich, cat. I6634). The K86415-001-R-J1-PDC line was cultured in 6D media, which includes all 6C/Colon 1B media components minus the L-WRN conditioned media. The 485176-168-R4-J1-PDC was cultured in PANC media, which includes all 6C/Colon 1B media plus 100 ng/mL human FGF-10 (PeproTech, cat. 100-26), 500 nM SB-431542 (Selleckchem, cat. S1067), and 10 nM gastrin (Tocris Bioscience, cat. 3006). […]
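Note: spheroids exposed to compounds for 7 days before viability read.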

The viability, T/C is the result in the treated group divided by that in the control group, in per cent. In general, IC50 refers to the midpoint of a concentration-inhibition curve. Consider `CC(=O)OC12COC1CC(O)C1(C)C(=O)C(O)C3=C(C)C(OC(=O)C(O)C(NC(=O)OC(C)(C)C)c4ccccc4)CC(O)(C(OC(=O)c4ccccc4)C21)C3(C)C` (centres undefined), for which the viability, T/C is 8.57% [middle of 4 runs] (compound 0.0316 µM); 7.52% [middle of 4 runs] (compound 0.1 µM); 7.03% [middle of 4 runs] (compound 0.316 µM); 6.22% [middle of 4 runs] (compound 1 µM); 5.95% [middle of 4 runs] (compound 3.16 µM); 6.14% [middle of 4 runs] (compound 10 µM). Moreover, the IC50 (curve of compound) was less than 31.6 nM.
As to `CCC(CC)c1cc(NC2CCC(N)C2)n2nccc2n1` (centres undefined), the viability, T/C was 98.2% [middle of 4 runs] (compound 0.0316 µM); 94.7% [middle of 4 runs] (compound 0.1 µM); 90.1% [middle of 4 runs] (compound 0.316 µM); 91.8% [middle of 4 runs] (compound 1 µM); 5.37% [middle of 4 runs] (compound 3.16 µM); 0.37% [middle of 4 runs] (compound 10 µM). In addition, the IC50 (curve of compound) is 1.77 µM [middle of 4 runs].
For `Cc1nc(N2CCC3(CC2)COC(C)C3N)c(CO)nc1Sc1ccnc(N)c1Cl` (centres undefined), the viability, T/C by setting is: (compound 0.0316 µM) 101% [middle of 4 runs]; (compound 0.316 µM) 107% [middle of 4 runs]; (compound 1 µM) 110% (2×) and 105% and 119%; (compound 3.16 µM) 119% (2×) and 105% and 91.9%. Where the note is “curve of compound”, the IC50 was more than 10000 nM.
For `NC1c2ccccc2OC12CCN(c1cnc3c(N4CCCc5ncccc54)n[nH]c3n1)CC2` (centres undefined), the viability, T/C by setting is: (compound 0.316 µM) 99.6% [middle of 4 runs]; (compound 10 µM) 73.3% [middle of 4 runs]. In addition, where the note is “curve of compound”, the IC50 was more than 10000 nM.
On to `C=CC(=O)Nc1cc(Nc2nccc(-c3cn(C)c4ccccc34)n2)c(OC)cc1N(C)CCN(C)C` + C#Cc1c(F)ccc2cc(O)cc(-c3ncc4c(N5CC6CCC(C5)N6)nc(OCC56CCCN5CC(F)C6)nc4c3F)c12, for which the IC50 (curve of first compound, second compound 0.0316 µM) turned out to be 97.4 nM; the IC50 (curve of first compound, second compound 0.1 µM) was 34.5 nM; the IC50 (curve of first compound, second compound 0.316 µM) is less than 3.16 nM; the IC50 (curve of first compound, second compound 1 µM) is less than 3.16 nM; the IC50 (curve of first compound, second compound 3.16 µM) is less than 3.16 nM; the IC50 (curve of first compound, second compound 10 µM) is less than 3.16 nM. The viability, T/C is 67.1% (second compound 0.0316 µM, first compound 0.00316 µM); 76.4% (second compound 0.0316 µM, first compound 0.01 µM); 69.8% (second compound 0.0316 µM, first compound 0.0316 µM); 37.6% (second compound 0.0316 µM, first compound 0.1 µM); 40.9% (second compound 0.0316 µM, first compound 0.316 µM); 15% (second compound 0.0316 µM, first compound 1 µM). Further, the viability, T/C is, setting by setting: (second compound 0.1 µM, first compound 0.00316 µM) 51.4%; (second compound 0.1 µM, first compound 0.01 µM) 61.5%; (second compound 0.1 µM, first compound 0.0316 µM) 52.3%; (second compound 0.1 µM, first compound 0.1 µM) 28.4%; (second compound 0.1 µM, first compound 0.316 µM) 16.5%; (second compound 0.1 µM, first compound 1 µM) 8.02%. For the same molecule, the viability, T/C is 23.2% (second compound 0.316 µM, first compound 0.00316 µM); 31.3% (second compound 0.316 µM, first compound 0.01 µM); 22.7% (second compound 0.316 µM, first compound 0.0316 µM); 13.8% (second compound 0.316 µM, first compound 0.1 µM); 10.4% (second compound 0.316 µM, first compound 0.316 µM); 6.25% (second compound 0.316 µM, first compound 1 µM). In addition, the viability, T/C is, setting by setting: (second compound 1 µM, first compound 0.00316 µM) 15.8%; (second compound 1 µM, first compound 0.01 µM) 18%; (second compound 1 µM, first compound 0.0316 µM) 13.4%; (second compound 1 µM, first compound 0.1 µM) 11.4%; (second compound 1 µM, first compound 0.316 µM) 8.84%; (second compound 1 µM, first compound 1 µM) 6.02%. Also, the viability, T/C reads like this: (second compound 3.16 µM, first compound 0.00316 µM) 10.4%; (second compound 3.16 µM, first compound 0.01 µM) 12.5%; (second compound 3.16 µM, first compound 0.0316 µM) 11.1%; (second compound 3.16 µM, first compound 0.1 µM) 8.84%; (second compound 3.16 µM, first compound 0.316 µM) 7.79%; (second compound 3.16 µM, first compound 1 µM) 4.87%. The viability, T/C reads like this: (second compound 10 µM, first compound 0.00316 µM) 9.04%; (second compound 10 µM, first compound 0.01 µM) 8.39%; (second compound 10 µM, first compound 0.0316 µM) 8.64%; (second compound 10 µM, first compound 0.1 µM) 7.72%; (second compound 10 µM, first compound 0.316 µM) 6.69%; (second compound 10 µM, first compound 1 µM) 3.95%.
